Source: PubChem BioAssay (NCI)
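Briefly, cells in 96-well plates were exposed to five compound concentrations for 48 h, and endpoints were estimated by linear interpolation. The concentration for full growth arrest is given as TGI.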

Key:
Assay in all cases: NCI-60 cell line screen, 48 h
[1] = tested on: 786-0 renal
[2] = tested on: A498 renal
[3] = tested on: A549 NSCLC
[4] = tested on: ACHN renal
[5] = tested on: CAKI-1 renal
[6] = tested on: CCRF-CEM leukemia
[7] = tested on: COLO 205 colon
[8] = tested on: DU-145 prostate
[9] = tested on: EKVX NSCLC
[10] = tested on: HCC-2998 colon
[11] = tested on: HCT-15 colon
[12] = tested on: HL-60(TB) leukemia
[13] = tested on: HOP-62 NSCLC
[14] = tested on: HOP-92 NSCLC
[15] = tested on: HS 578T breast
[16] = tested on: HT29 colon
[17] = tested on: IGROV1 ovarian
[18] = tested on: K-562 leukemia
[19] = tested on: KM12 colon
[20] = tested on: LOX IMVI melanoma
[21] = tested on: M14 melanoma
[22] = tested on: MALME-3M melanoma
[23] = tested on: MCF7 breast
[24] = tested on: MDA-MB-231 breast
[25] = tested on: MDA-MB-435
[26] = tested on: MDA-N
[27] = tested on: MOLT-4 leukemia
[28] = tested on: NCI-H226 lung
[29] = tested on: NCI-H23 lung
[30] = tested on: NCI-H460 lung
[31] = tested on: NCI/ADR-RES ovarian
[32] = tested on: OVCAR-3 ovarian
[33] = tested on: OVCAR-4 ovarian
[34] = tested on: OVCAR-5 ovarian
[35] = tested on: OVCAR-8 ovarian
[36] = tested on: PC-3 prostate
[37] = tested on: RPMI-8226 leukemia
[38] = tested on: RXF 393 renal
[39] = tested on: SF-268 CNS
[40] = tested on: SF-295 CNS
[41] = tested on: SF-539 CNS
[42] = tested on: SK-MEL-2 melanoma
[43] = tested on: SK-MEL-28 melanoma
[44] = tested on: SK-MEL-5 melanoma
[45] = tested on: SK-OV-3 ovarian
[46] = tested on: SNB-19 CNS
[47] = tested on: SNB-75 CNS
[48] = tested on: SR leukemia
[49] = tested on: SW-620 colon
[50] = tested on: T-47D breast
[51] = tested on: TK-10 renal
[52] = tested on: U251 CNS
[53] = tested on: UACC-257 melanoma
[54] = tested on: UACC-62 melanoma
[55] = tested on: UO-31 renal
[56] = tested on: BT-549 breast
[57] = tested on: HCT-116 colon
[58] = tested on: SN12C renal
[59] = tested on: NCI-H522 lung

## COC(=O)N1CC2(CO)C3CC=C(C(=O)Nc4ccccc4Br)C2C1C3Br (stereo not drawn)
[1]
  TGI: > 50 µM
[2]
  TGI: > 50 µM
[3]
  TGI: > 50 µM
[4]
  TGI: > 50 µM
[5]
  TGI: > 50 µM
[6]
  TGI: > 50 µM
[7]
  TGI: > 50 µM
[8]
  TGI: > 50 µM
[9]
  TGI: > 50 µM
[10]
  TGI: > 50 µM
[11]
  TGI: > 50 µM
[12]
  TGI: > 50 µM
[13]
  TGI: > 50 µM
[14]
  TGI: > 50 µM
[15]
  TGI: > 50 µM
[16]
  TGI: > 50 µM
[17]
  TGI: > 50 µM
[18]
  TGI: > 50 µM
[19]
  TGI: > 50 µM
[20]
  TGI: > 50 µM
[21]
  TGI: > 50 µM
[22]
  TGI: > 50 µM
[23]
  TGI: > 50 µM
[24]
  TGI: > 50 µM
[25]
  TGI: > 50 µM
[26]
  TGI: > 50 µM
[27]
  TGI: > 50 µM
[28]
  TGI: > 50 µM
[29]
  TGI: > 50 µM
[30]
  TGI: > 50 µM
[31]
  TGI: > 50 µM
[32]
  TGI: > 50 µM
[33]
  TGI: > 50 µM
[34]
  TGI: > 50 µM
[35]
  TGI: > 50 µM
[36]
  TGI: > 50 µM
[37]
  TGI: > 50 µM
[38]
  TGI: > 50 µM
[39]
  TGI: > 50 µM
[40]
  TGI: > 50 µM
[41]
  TGI: > 50 µM
[42]
  TGI: > 50 µM
[43]
  TGI: > 50 µM
[44]
  TGI: > 50 µM
[45]
  TGI: > 50 µM
[46]
  TGI: > 50 µM
[47]
  TGI: > 50 µM
[48]
  TGI: > 50 µM
[49]
  TGI: > 50 µM
[50]
  TGI: > 50 µM
[51]
  TGI: > 50 µM
[52]
  TGI: > 50 µM
[53]
  TGI: > 50 µM
[54]
  TGI: > 50 µM
[55]
  TGI: > 50 µM

## CCOC(=O)c1cn(-c2ccccc2)c(=S)n2c1nc1ccccc12
[1]
  TGI: > 100 µM
[2]
  TGI: > 100 µM
[3]
  TGI: > 100 µM
[4]
  TGI: > 100 µM
[56]
  TGI: > 100 µM
[5]
  TGI: > 100 µM
[6]
  TGI: 65.3 µM
[7]
  TGI: > 64.8 µM
[8]
  TGI: > 100 µM
[9]
  TGI: > 100 µM
[10]
  TGI: 96.9 µM
[57]
  TGI: > 100 µM
[11]
  TGI: > 100 µM
[13]
  TGI: > 100 µM
[14]
  TGI: 47.7 µM
[16]
  TGI: > 90.8 µM
[17]
  TGI: > 100 µM
[18]
  TGI: > 100 µM
[19]
  TGI: > 100 µM
[20]
  TGI: > 100 µM
[21]
  TGI: > 100 µM
[23]
  TGI: > 100 µM
[24]
  TGI: > 100 µM
[25]
  TGI: > 94.8 µM
[26]
  TGI: > 100 µM
[27]
  TGI: 17.5 µM
[28]
  TGI: > 88.1 µM
[29]
  TGI: > 100 µM
[30]
  TGI: > 100 µM
[31]
  TGI: > 100 µM
[32]
  TGI: > 100 µM
[33]
  TGI: > 100 µM
[34]
  TGI: > 100 µM
[35]
  TGI: > 100 µM
[36]
  TGI: > 90 µM
[37]
  TGI: > 100 µM
[38]
  TGI: > 100 µM
[39]
  TGI: 94.9 µM
[40]
  TGI: > 100 µM
[41]
  TGI: > 100 µM
[42]
  TGI: > 100 µM
[43]
  TGI: > 73.4 µM
[44]
  TGI: > 89.6 µM
[45]
  TGI: > 100 µM
[58]
  TGI: > 100 µM
[46]
  TGI: > 100 µM
[47]
  TGI: > 100 µM
[48]
  TGI: 84.6 µM
[49]
  TGI: > 100 µM
[50]
  TGI: > 100 µM
[51]
  TGI: > 100 µM
[52]
  TGI: > 100 µM
[53]
  TGI: > 100 µM
[54]
  TGI: > 100 µM

## Cc1ccc(C2CC(=O)CC(c3ccc(C)cc3)C23C(=O)NC(=O)NC3=O)cc1 (stereo not drawn)
[1]
  TGI: > 100 µM
[4]
  TGI: > 100 µM
[56]
  TGI: > 100 µM
[5]
  TGI: > 100 µM
[6]
  TGI: > 100 µM
[7]
  TGI: > 100 µM
[8]
  TGI: > 100 µM
[9]
  TGI: > 100 µM
[10]
  TGI: > 100 µM
[57]
  TGI: > 100 µM
[11]
  TGI: > 100 µM
[13]
  TGI: > 100 µM
[14]
  TGI: > 100 µM
[16]
  TGI: > 100 µM
[17]
  TGI: > 100 µM
[18]
  TGI: > 100 µM
[19]
  TGI: > 100 µM
[20]
  TGI: > 100 µM
[21]
  TGI: > 100 µM
[22]
  TGI: > 100 µM
[23]
  TGI: > 100 µM
[24]
  TGI: > 100 µM
[25]
  TGI: > 100 µM
[26]
  TGI: > 100 µM
[27]
  TGI: > 100 µM
[28]
  TGI: > 100 µM
[29]
  TGI: > 100 µM
[30]
  TGI: > 100 µM
[59]
  TGI: > 100 µM
[31]
  TGI: > 100 µM
[32]
  TGI: > 100 µM
[33]
  TGI: > 100 µM
[34]
  TGI: > 100 µM
[35]
  TGI: > 100 µM
[36]
  TGI: > 100 µM
[37]
  TGI: > 100 µM
[38]
  TGI: > 100 µM
[39]
  TGI: > 100 µM
[40]
  TGI: > 100 µM
[41]
  TGI: > 100 µM
[42]
  TGI: > 100 µM
[43]
  TGI: > 100 µM
[44]
  TGI: > 100 µM
[58]
  TGI: > 100 µM
[46]
  TGI: > 100 µM
[47]
  TGI: > 100 µM
[48]
  TGI: > 100 µM
[49]
  TGI: > 100 µM
[50]
  TGI: > 100 µM
[51]
  TGI: > 100 µM
[52]
  TGI: > 100 µM
[53]
  TGI: > 100 µM
[54]
  TGI: > 100 µM
[55]
  TGI: > 100 µM
